Patent publication US9687551B2, “Compositions comprising lecithin oils and NSAIDs for protecting the gastrointestinal tract and providing enhanced therapeutic activity” (The Board of Regents of the University of Texas System, priority 2000, dated 2017)

What was measured:
[1] = system: rabbit carotid artery thrombus; assay: In vivo model of arterial thrombogenesis (carotid artery, anodal current)
Description: The anti-thrombotic effect of aspirin with or without PC was then evaluated in an in vivo model of arterial thrombogenesis. According to the protocol (B24), the left carotid artery of an anesthetized rabbit was subjected to anodal current to the point where mean carotid blood flow velocity was […] control values, which corresponds to 50% occlusion of the vessel by the formed thrombus. At this point the current was discontinued and the test drugs intravenously administered as blood flow was monitored over the next 2-3 hours. It can be appreciated from FIG. 14A that carotid artery blood flow velocity dropped to zero (indicative of complete thrombus occlusion of the vessel) in <60 min in control rabbits treated with either saline or phospholipid alone (mean time until closing=40±17).

[2] = system: PGI2 to TXA2 ratio of carotid artery; assay: PGI2 to TXA2 ratio in affected carotid arteries; type: in vivo, rabbit; conditions: 2.5 mg/kg aspirin; FIG. 14C
Description: 6-keto PGF1α (a metabolite of PGI2) and TXA2 concentrations was also measured in the affected carotid arteries.

[3] = system: vascular (endothelial) PGI2, abdominal aorta; assay: Ex vivo 6-keto PGF1α production by abdominal aorta; type: in vivo, rat; conditions: 20 mg/kg ASA intragastric, 1 hr, incubated with AA; vs control; FIG. 13B
Description: FIG. 13B graphically depicts the effect of intragastric administration to rats of 20 mg/kg ASA alone or complexed with DPPC on 6KPGF1a production by abdominal aorta. After 1 hr the aorta was removed and each aorta ring was incubated at […] for 10 min in Tris-HCl buffer containing 25 mM AA. 6KPGF1a was measured by RIA. *=p<0.050 vs ASA; **=p<0.001 vs saline; n=4;
This ex vivo approach was then used to measure vascular (endothelial) PGI2. Abdominal aorta excised one hour after drug administration was evaluated for its ability to produce 6-keto PGF1α (a stable metabolite of PGI2) by incubating it with arachidonic acid (AA, 25 mM). […] It is, therefore, possible to achieve selective inhibition of platelet cyclooxygenase and preserve vascular prostacyclin biosynthesis by the administration of PC-aspirin.

rats' inflamed paw = assay: Pain threshold of CFA-inflamed hindpaw (Randall-Sellito technique); type: in vivo, rat; conditions: 2 h; for pain pressure threshold of inflamed paw (analgesic activity): lecithin oil 1:1
Description: A previously described method was then used to evaluate the anti-inflammatory/analgesic activity of the NSAID-lecithin formulations (in comparison to the NSAIDs alone). This was accomplished be injecting 0.1 ml of Complete Freund's Adjuvant (CFA) into the left hindpaw of rats to induce an acute inflammatory response. […] The results are depicted in FIGS. 4-6.

fasted rats [4] = assay: GI bleeding (hemoglobin in GI effusate) in rats sensitised with L-NAME; type: in vivo, rat; conditions: intragastric, NSAID:lecithin 1:1, L-NAME
Description: Control rats received an equivalent volume of saline. To make the rats more sensitive to the GI damaging effects of the NSAID all rats also were injected with the nitric oxide (NO) synthase inhibitor, L-NAME (20 mg/kg), three times over the 18-20 hr study period, after which the animals were euthanized and the distal 20 cm of the GI tract was flushed with 2 ml of saline, and the effusate collected for hemoglobin analysis—as an index of GI bleeding.

SCI rats = conditions: 25 mg NSAID/kg twice a day
Source text: In FIG. 7A, the data was plotted directly as recorded (without normalization), while in FIG. 7B, the data values for each animal are compared to its own baseline preoperative values.
Please note that in this case, a lower number is indicative of analgesic, whereas with the Randall Sellito test higher pain pressure threshold values are indicative of analgesia.

Tg2576 mouse = conditions: cited from earlier work
mucosal COX activity = conditions: aspirin subcutaneously or intragastrically; cited from earlier work
[5] = system: TXB2 production in rat platelets; assay: Ex vivo TXB2 production in platelets after intragastric dosing; conditions: 20 mg/kg intragastric, 30 min, aggregation induced by arachidonic acid; FIG. 13A
Description: FIGS. 13A&B graphically depicts Concentration of TXB2 in rat platelets, 30 min after oral administration of saline, DPPC, ASA (20 mg/kg), or ASA complexed with DPPC. PRP was prepared and aggregation induced by AA (2 mM). TXB2 was measured by RIA. The results expressed as mean±SEM; n=3. *=p<0.050 vs ASA—Abbreviations: DPPC=dipalmitoylphosphatidylcholine; AA=arachidonic acid; pRP=platelet rich plasma; TXB=thromboxane;
Ex vivo animal studies of the effects of phospholipid-aspirin complex (containing equimolar concentration of the two agents) on the ability to produce TXA2 and PGI2 in platelets and vascular tissue respectively were invesitaged. Rats were intragastrically administered either unmodified or DPPC-associated aspirin (20 mg/kg dose), and after 30 minutes, blood was drawn, platelet-rich plasma was prepared, and aggregation was induced by arachidonic acid.

fasted rats [6] = assay: Gastric lesions after intragastric aspirin followed by HCl challenge; type: in vivo, rat; conditions: aspirin 18 mg/kg, 0.6 N HCl 45 min later, ASA:lecithin oil 1:0.5, 1:1, 1:2, FIG. 1
Description: One preferred embodiment of this formulation is a lecithin oil based PC-NSAID composition, which has been tested for GI toxicity. The three formulations that were tested include lecithin oils combined with aspirin, indomethacin and ibuprofen. In this study, aspirin was combined with Phosal® 35 SB, a lecithin oil, marketed by Phospholipid GmbH (Cologne, Germany), that is constituted of soy lecithin-derived components in sunflower oil. More particularly, Phosal® 35 SB lecithin oil contains about 33-40 wt. % phosphatidylcholine (PC, not including lyso-phosphatidylcholine), about 26-31 wt. % triglycerides, about 8-13 wt. % free fatty acids, and about 5-9 wt. % glycolipids. The aspirin/lecithin oil (Phosal® 35 SB) composition was intragastrically administered to fasted rats at an aspirin dose of 18 mg/kg, where the NSAID:lecithin oil weight ratio was systematically varied from 1:0.5, to 1:1, to 1:2. In addition, other groups of rats received an equivalent dose of aspirin in the absence of the lecithin oil, or an equivalent volume of saline. Forty five minutes later all animals were intragastrically challenged with 1 ml of 0.6 N HCl, and 15 min later, the animals were euthanized and their stomachs opened and the gastric lesions scored by an established method.^50-52

[7] = system: fasted Sprague Dawley rats; assay: Acetaminophen liver injury, plasma AST; type: in vivo, rat; conditions: acetaminophen 800 mg/kg oral, 24 hrs, P35 SB 1:2 wt ratio, vs saline; FIG. 15
Description: FIG. 15 graphically depicts data relating to liver injury in rats, as indicated by elevations in the plasma levels of the enzyme aspartate transaminase (AST), 24 hours after fasted rats are orally administrated acetaminophen (800 mg/kg) alone or in combination with P35SB at wt. ratios of 1:1 and 1:2.

What does the source list for CCCCCCCCCCCCCCCC(=O)OC[C@H](COP(=O)([O-])OCC[N+](C)(C)C)OC(=O)CCCCCCCCCCCCCCC [DPPC, dipalmitoylphosphatidylcholine]?
time until blood flow velocity dropped to zero (complete occlusion) ([1]; control rabbits treated with saline or phospholipid alone, FIG. 14A): < 60 min; mean time until closing ([1]; control rabbits, saline or phospholipid alone (pooled), in min): 40±17; PGI2 to TXA2 ratio in affected carotid arteries [2]: improved slightly; 6-keto PGF1α production by abdominal aorta [3]: no effect

With COc1ccc2c(c1)c(CC(=O)O)c(C)n2C(=O)c1ccc(Cl)cc1 [indomethacin] as the molecule, how does the “pain pressure threshold of inflamed paw (analgesic activity)” value (rats' inflamed paw; indomethacin 4 mg/kg intragastric, FIG. 6) read?
Its value is “modest though non-significant, ability to increase the pain pressure threshold”.

And the GI bleeding (fasted rats [4]; indomethacin 10 mg/kg, FIG. 2)?
Its GI bleeding is “severe increase in GI bleeding”.

What does the source list for CC(C)Cc1ccc(C(C)C(=O)O)cc1 (centres unmarked) [ibuprofen]?
body weight gain (SCI rats; 6 week period, FIG. 9): do not gain weight; pain pressure threshold (hyperalgesia), Randall Sellito (SCI rats; 6 weeks after SCI, FIGS. 7A, 7B): hyperalgesia due to SCI was not seen; pain pressure threshold of inflamed paw (analgesic activity) (rats' inflamed paw; ibuprofen 25 mg/kg intragastric, FIG. 5): modest though non-significant, ability to increase the pain pressure threshold; GI bleeding (fasted rats [4]; ibuprofen 100 mg/kg, FIG. 3): modest increase in GI bleeding; amyloid-plaques, dystrophic neurites and activated microglia (Tg2576 mouse): reduce numbers of amyloid-plaques, dystrophic neurites and activated microglia

For CC(=O)Oc1ccccc1C(=O)O [aspirin], which “time to vessel occlusion by thrombus” value ([1]; 2.5 mg/kg aspirin i.v., FIG. 14A) is on record?
Its value is at most 61 ± 15 min.

What about the vessel occlusion ([1]; aspirin 5-20 mg/kg i.v., 2-3 hr experiment (data not shown)) of the same molecule?
Its vessel occlusion is “no vessel occlusion”.

And the “inhibition of mucosal COX activity” value (mucosal COX activity)?
The value was over 90%.

What about the “PGI2 to TXA2 ratio in affected carotid arteries” value [2] of the same molecule?
Its value is “improved slightly”.

And the “pain threshold of affected paw (analgesic activity)” value (rats' inflamed paw; aspirin 10 mg/kg intragastric, all weight ratios tested, FIG. 4)?
Its value is “modest ability to increase the pain threshold”.

And the “TXB2 production in platelets” value [5]?
The value was “reduction in TXB2”.

And the “6-keto PGF1α production by abdominal aorta” value [3]?
The value was “significantly inhibited”.

What about the gastric lesions (fasted rats [6]) of the same molecule?
The gastric lesions was “high number of gastric lesions”.

Which “plasma aspartate transaminase (AST), liver injury” value [7] does the source give for CC(=O)Nc1ccc(O)cc1 [Tylenol, acetaminophen] here?
Its value is “significantly elevated”.
